Assay results: US7033829B2, “Method to inhibit cell growth using oligonucleotides” (Trustees of Boston University, priority 2000, dated 2006)

Legend:
contact hypersensitivity = assay: Contact hypersensitivity to DNFB (ear swelling); type: in vivo, C57B16 mice; conditions: 30 μl of 100 μM BID×5d topical to abdominal skin before sensitization
Description: C57B16 mice were subjected to the following treatment prior to sensitization with the allergen DNFB, by topical administration to abdominal skin; no pretreatment, UVB irradiation (200 J/m^2/dx4d), pTpT, pApA, or vehicle alone (30 μl of 100 μM BID×5d).

[1] = system: BP DNA adducts (CAT reporter plasmid) in human keratinocytes; assay: Repair of BP-damaged CAT reporter plasmid in keratinocytes; type: cell-based; conditions: 100 μM 48 hours; ~25 or ~50 adducts/plasmid
Description: The pCAT vector (Promega) was treated with benzo[a]pyrene-7,8-diol-9,10-epoxide (BP) as described (Athas et al. Cancer Res 1991) to produce less damaged and more damaged plasmids, previously shown to be instructive in studies examining different repair capacities in human cells. Based on the incorporation of ^3H-BPDE into the DNA, the less damaged plasmid contained 25 adducts per 5 kb plasmid and the more damaged plasmid contained 50 adducts. This non-replicating vector contains the chloramphenicol acetyltransferase gene under control of SV40 promoter and enhancer sequences. […] CAT enzyme activity was determined using the liquid scintillation counting protocol and components of the assay system kit (Promega). ^14C-labeled chloramphenicol[50–60 mCi(1.85–2.22 GBq)/mmol] was purchased from New England Nuclear (Boston, Mass.). […]
To measure the repair of BP DNA adducts, non-replicating BP-damaged reporter plasmid system containing the bacterial chloramphenicol acetyltransferase (CAT) gene was used as described in Example 8. With first passage human keratinocytes, the transfection efficiency, as measured by the cotransfected β-galactosidase expression vector, was 40–70%.

TNF-α gene = assay: TNFα promoter CAT reporter transgene in skin; type: in vivo, mice; conditions: intracutaneous pTpT 100 μM; LPS 1 μg/ml
Description: In another experiment, TNF-α gene activation was measured by utilizing mice carrying a CAT reporter transgene bearing the entire TNFα promoter and 3′-untranslated region. Transgenic mice were subjected to the following treatment prior to skin assay for CAT expression: UVB irradiation (200–700 J/m^2), intracutaneous injection of pTpT (100 μM); lipopolysaccharide (LPS 1 μg/ml) as positive control, or vehicle alone.

[2] = system: p53, PCNA and the XPA protein; assay: Western blot of DNA repair proteins in keratinocytes; type: cell-based, human; conditions: within 2 days of treatment
Description: Cells were treated with 100 μM pTpT or an equal volume of diluent alone for 48 hours. Total cellular proteins were collected in a buffer consisting of 0.25 M Tris HCl (pH 7.5), 0.375 M NaCl, 2.5% sodium deoxycholate, 1% Triton X-100, 25 mM MgCl2, 1 mM phenylmethyl sulfonyl fluoride, and 0.1 mg ml aprotinin. Proteins (100 μg per sample) were separated by 7.5–15% SDS-PAGE and transferred to a nitrocellulose membrane (Schleicher & Schuell, Keene, N. H.). After transfer, the gel was stained with Coomassie Blue to verify even loading as visualized by the residual high molecular weight proteins. Membranes were blocked in 0.05% Tween-20/PBS with 5% milk, (Bio-Rad Laboratories, Hercules, Calif.). Antibody reactions were performed with the following antibodies: anti p53 (AB-6), anti PCNA (Ab-2) (Oncogene Science), and anti XPA (FL-273) (Santa Cruz Biotechnology). Sheep anti-mouse Ig linked to horseradish peroxidase (Amersham, Arlington Heights, Ill.) (for p53 and PCNA) and goat anti-rabbit IgG (Bio-Rad)(for XPA) were used as the secondary antibodies. Binding was detected by the ECL detection kit (Amersham).
Western blot analysis was used to examine the effect of pTpT treatment on the expression of selected genes known to be involved in DNA repair.

## thymidine dinucleotide [pTpT]
Contact hypersensitivity
  ear swelling responses to DNFB challenge: 0.9±0.3
[1]
  CAT expression relative to undamaged control vector, compared to diluent: approximate doubling of CAT expression
TNF-α gene
  CAT activity in skin: CAT activity was detected
[2]
  up-regulation of levels of p53, PCNA and XPA protein: 2 to 3 fold
